≈ marks a conversion by molar mass, not a printed value.
System: HIV-1 (RF)
Assay: HIV RNA Assay (HIV-1 infected MT-2 cells)
Format: cell-based
Conditions: Human immunodeficiency virus 1, MT2, 72 h; HIV-1 (RF) infected MT-2 cells, 3 days of culture; read-out: IC90 value (concentration of compound required to reduce the HIV RNA level by 90%)
Protocol: DNA Plasmids and in vitro RNA transcripts
Plasmid pDAB 72 containing both gag and pol sequences of BH10 (bp 113-1816) cloned into PTZ 19R was prepared according to Erickson-Viitanen et al., AIDS Research and Human Retroviruses (1989) 5:577. The plasmid was linearized with Bam HI prior to the generation of in vitro RNA transcripts using the Riboprobe Gemini system II kit (Promega) with T7 RNA polymerase. Synthesized RNA was purified by treatment with RNase free DNAse (Promega), phenol-chloroform extraction, and ethanol precipitation. RNA transcripts were dissolved in water, and stored a -70° C. The concentration of RNA was determined from the A260.
Biotinylated capture probes were purified by HPLC after synthesis on an Applied Biosystems (Foster City, Calif.) DNA synthesizer by addition of biotin to the 5' terminal end of the oligonucleotide, using the biotin-phosphoramidite reagent of Cocuzza, Tet. Lett. (1989) 30:6287. […]
MT-2, CEM, and H9 cells were maintained in RPMI 1640 supplemented with 5% fetal calf serum (FCS), 2 mM L-glutamine and 50 μg/mL gentamycin, all from Gibco. […] Infectious titers of HIV-1(RF) stocks were 1-3×10^7 PFU (plaque forming units)/mL as measured by plaque assay on MT-2 cells (see below). […]

IC90: 0.2 µg/mL (≈ 0.947 µM)
SMILES: Nc1ccn([C@H]2CC[C@@H](CO)O2)c(=O)n1 [ddC, 2',3'-dideoxycytidine]
